Laboratory results published in patent US20140045908A1, “HSP90 INHIBITORY COMPOUNDS IN TREATING JAK/STAT SIGNALING-MEDIATED CANCERS” (SYNTA PHARMACEUTICALS CORP., priority 2011, published 2014).

Tests used:
[1] = test system: HEL92.1.7 cells (JAK2V617F); assay: HEL92.1.7 disseminated (orthotopic) leukemia survival model; assay type: in vivo
Procedure: Beginning 1 day after tumor cell implantation, ganetespib was i.v. dosed at its HNSTD (25 mg/kg) on a five-times per week schedule for 3 weeks through day 19 ([…]). *P<0.0001; 2-sided log-rank test.
Eight-week-old female immunodeficient CB-17/Icr-Prkdcscid/Crl (SCID) mice (Charles River Laboratories, Wilmington, Mass.) were maintained in a pathogen-free environment, and all in vivo procedures were approved by the Synta Pharmaceuticals Corp. Institutional Animal Care and Use Committee. For the MV4-11 model, tumor cells were subcutaneously implanted in SCID mice as previously described (34). Tumor volumes (V) were calculated by caliper measurements of the width (W), length (L), and thickness (T) of each tumor using the formula: V=0.5236 (LWT).
For the HEL92.1.7 model, SCID mice were i.v. injected via the tail vein with 5×10^6 cells in phosphate-buffered saline (PBS) on day 0. Implanted animals were then randomized into groups of 10 and i.v. dosed via the tail vein at 10 mL/kg body weight with either vehicle or ganetespib formulated in 10/18 DRD. Animals were weighed daily and removed from the study at the first sign of hind limb paralysis, which occurred in 100% of vehicle-treated animals. Median overall survival was estimated using the Kaplan-Meier method and the log-rank test (2-sided) for statistical significance. Tumor cells were identified as either CD44- or CD54-positive cells within the CD45-negative population. Spinal column tumor burden was determined by quantitative image analysis with ImageJ software (Wayne Rasband, National Institute of Mental Health) of hematoxylin and eosin stained tissue sections.
For both models, studies were conducted at the highest non-severely toxic doses (NHSTDs) of 150 mg/kg ganetespib one-time per week or 25 mg/kg ganetespib 5×/week for 3 weeks based on prior tolerability studies conducted in non-tumor bearing mice.

[2] = test system: JAK/STAT signaling in SET-2 cells; assay: Western blot of JAK/STAT signaling in SET-2 cells; assay type: cell-based, human; conditions: 24 h
Procedure: SET-2 cells were dosed with the indicated concentrations of ganetespib or 17-AAG for 24 h and analyzed to determine JAK/STAT protein and target levels using the antibodies indicated.
(§1) Cells were disrupted in lysis buffer (CST) and solubilized in 2% SDS. Xenograft tumors (average volume of 100-200 mm3) were excised, cut in half, and flash frozen in liquid nitrogen. Each tumor fragment was lysed in 0.5 mL of lysis buffer using a FastPrep-24 homogenizer and Lysing Matrix A (MP Biomedicals, Solon, Ohio, USA) and lysates clarified by centrifugation. Equal amounts of proteins were resolved by SDS-PAGE and immunoblotted with indicated antibodies. The antigen-antibody complex was visualized and quantitated using an Odyssey system (LI-COR, Lincoln, Nebr., USA).

[3] = test system: JAK/STAT target and cell cycle gene expression in HEL92.1.7 cells; assay: RNA expression profiling (RT-PCR, Affymetrix) in HEL92.1.7 cells; assay type: cell-based, human
Procedure: HEL92.1.7 cells were treated with DMSO, P6 (100 or 1000 nM) or ganetespib (25 or 250 nM) for 4 h or 24 h, and total RNA extracted using Trizol (Invitrogen). RNA was purified with the RNeasy kit (Qiagen, Hilden, Germany) and converted to cDNA via an iScript kit (BioRad, Hercules, Calif., USA). Oligonucleotide primers were purchased from SABiosciences (Frederick, Md., USA). PCR was done with iQ SYBR Green Supermix (Bio-Rad), and levels of the tested genes were normalized to HPRT expression using the comparative Ct method.
Biotinylated aRNA was generated by in vitro transcription using Affymetrix GeneChip Expression IVT labeling kit (Affymetrix, Santa Clara, Calif., USA). Fifteen micrograms of labeled aRNA was fragmented and hybridized to Affymetrix GeneChip Human Genome U133 Plus 2 arrays and scanned using a GeneChip Scanner (Affymetrix). Array data were analyzed with the Affymetrix Expression Console Software utilizing the MASS algorithm. In order to generate a threshold for identifying probe sets that have large differences between 1000 nM P6 (4 h) and 250 nM ganetespib (24 h) arrays and their controls in the absence of treatment replicates, data from four control arrays (DMSO only; two at 4 h, and two at 24 h) were used to create an expression level dependent fold-difference envelope that reflects the increasing measurement variability as expression level decreases. This envelope, used in lieu of a fixed fold-difference criteria, was formed by identifying the xth percentile expression-level difference (where x was large, typically 99.9%) at each mean expression level bin. To achieve this, data were used from the six possible comparisons from the four DMSO-only arrays. The resulting, smoothed threshold fold-difference envelope was then applied to the two compound-treated/control array pairs to identify those probe-sets that have large expression level differences between treatment and control. For hierarchical analysis, genes with greater than two fold changes in expression with 250 nM ganetespib were clustered using established algorithms in Cluster (49) and a subset visualized by TreeView.

[4] = test system: SET-2, HEL92.1.7, MV4-11, NCI-H1975 and DU145 cells; assay: Cell viability assay (AlamarBlue, 72 h), group of JAK/STAT-dependent tumor cell lines; assay type: cell-based, human
Procedure: SET-2, HEL92.1.7, MV4-11, NCI-H1975 and DU145 cells were treated with ganetespib or 17-AAG over a broad dose range (0.0001 to 1 μM) for 72 h and cell viability assessed by Alamar blue staining.
All cell lines were obtained from the ATCC (Rockville, Md., USA), with the exception of SET-2 cells which were purchased from the German Collection of Microorganisms and Cell Cultures (DSMZ, Germany). Cells were maintained and cultured according to standard techniques at 37° C. in 5% (v/v) CO2 using culture medium recommended by the supplier.
Cells were grown in 96-well plates based on optimal growth rates determined empirically for each line. Twenty-four hours after plating, cells were dosed with the indicated compound or DMSO (0.3%) for 72 h. AlamarBlue (Invitrogen, Carlsbad, Calif., USA) was added (10% v/v) to the cells, and the plates were incubated for 3 h and subjected to fluorescence detection (Ex=545 nm, Em=600 nm) in a SpectraMax Plus 384 microplate reader (Molecular Devices, Sunnyvale, Calif., USA). Data are normalized to percent of control, with IC50 values based on a four-parameter logistic dose response curve (model 205) using XLfit version 5.1 from IDBS (Guildford, U.K.).

[5] = test system: JAK2/STAT signaling in NCI-H1975 cells; assay: Western blot of JAK/STAT and Hsp90 client proteins in NCI-H1975 cells; assay type: cell-based, human; conditions: 24 h
Procedure: NCI-H1975 cells were dosed with the indicated concentrations of ganetespib for 24 h and their cell lysates analyzed to determine JAK/STAT and Hsp90 client protein levels using the antibodies indicated.
as §1

## CC(C)c1cc(-c2nnc(O)n2-c2ccc3c(ccn3C)c2)c(O)cc1O [ganetespib, 3-(2,4-dihydroxy-5-isopropyl-phenyl)-4-(1-methyl-indol-5-yl)-5-hydroxy-[1,2,4] triazole]
[1]; 25 mg/kg i.v. 5×/week
  tumor cell burden in bone marrow and spinal cord (histological analysis): dramatically decreased tumor cell burden
[1]; 25 mg/kg i.v. 5×/week through day 19, SCID mice
  median overall survival: 76.5 days
[1]; 25 mg/kg i.v. 5×/week, after 3 weeks of dosing
  body weight (tolerability): no significant loss of body weight
[2]
  concentration able to destabilize JAK2 sufficiently to result in loss of activated (phosphorylated) STAT3 and STAT5 expression: 50 nM
[3]; 250 nM, 24 h
  expression of cell cycle-related genes: selectively altered the expression of a large set of genes involved in cell cycle-related activities
  expression of heat shock protein genes: up-regulation of numerous heat shock protein genes
[3]; 4 hour P6 (1000 nM), 24 hour ganetespib (250 nM)
  expression of JAK/STAT target genes (SOCS and PIM family members): downregulated
[4]; each of the lines tested
  potency compared with 17-AAG, cell viability: more potent than the ansamycin Hsp90 inhibitor 17-AAG
[4]; group of human hematological and solid tumor cell lines, 72 h
  potency in reducing cellular viability: low nanomolar potency
[5]
  AKT and GSK3β activity: Inactivation of AKT and GSK3β
  EGFR expression: dose dependent decrease in EGFR expression
  JAK2 and phosphorylated STAT3 levels: potent degradation of JAK2 and loss of phosphorylated STAT3 in a dose-dependent manner
  levels of phosphorylated BAD: concomitant reduction in the levels of phosphorylated BAD
